In publication PMC11232109, “Synthesis, anticancer evaluation of novel hybrid pyrazole-based chalcones, molecular docking, DNA fragmentation, and gene expression: in vitro studies” (RSC Advances, 2024):
Where “and” joins values, the source holds several entries; their conditions need not be identical. Equal values may be shown once. Marks after values point to notes of the source that are not given here.

What was measured:
Type in all cases: cell-based, human
[1] = system: Bcl-2; test: qPCR gene expression of Bcl-2 in MCF7 cells; conditions: treatment with IC50 conc., negative control = 1
Protocol: (§1) Total RNA was isolated from breast and pancreatic cancer cell lines according to the manufacturer's protocol using RNeasy Mini Kit (Qiagen) supplemented with the DNaseI (Qiagen) digestion step. To digest DNA residues, the isolated total RNA was treated with one unit of RQ1 RNAse-free DNAse (Invitrogen), re-suspended in DEPC-treated water, and quantified using a spectrophotometer at 260 nm. The purity of total RNA was assessed by the 260/280 nm ratio, which was between 1.8 and 2.1. Moreover, RNA integrity was assured by ethidium bromide-stain analysis of 28S and 18S bands by formaldehyde-containing agarose gel electrophoresis. Complete poly(A)+ RNA isolated from breast and pancreatic cell lines was reverse-transcribed into cDNA in a total volume of 20 μl using the RevertAidTM First Strand cDNA Synthesis Kit (Fermentas). […] Subsequently, the reaction tubes containing RT preparations were flash-cooled in an ice chamber until used for cDNA amplification using a quantitative real-time polymerase chain reaction (qRT-PCR).
(§2) Determination of the breast and pancreatic cell line cDNA copy number was carried out using the StepOne™ Real-Time PCR system from Applied Biosystems (Thermo Fisher Scientific). […] The relative quantification of the target to the reference was performed using the 2^−ΔΔCT method (Yang et al., 2017).[51]

[2] = system: CDK4; test: qPCR gene expression of CDK4 in MCF7 cells; conditions: treatment with IC50 conc., negative control = 1
Protocol: as §1, §2

[3] = system: P21; test: qPCR gene expression of P21 in MCF7 cells; conditions: treatment with IC50 conc., negative control = 1
Protocol: as §1, §2

[4] = system: MCF7 cell lines; test: DNA fragmentation assay, MCF7; conditions: for DNA fragmentation, Inhibition (%): MCF7; for DNA fragmentation (%) M ± SEM: MCF7, 24 hours of exposure, −ve control 8.6 ± 0.36; for DNA fragmentation, Change: MCF7, change versus −ve control
Protocol: (§3) The DNA fragmentation assay in breast and pancreatic cancer cell lines was performed in accordance with the method of Helmy et al., 2022 (ref. [15]) with some modifications. Briefly, after 24 hours of exposure of breast and pancreatic cancer cell lines to the tested chalcone compounds in different Petri dishes (60 × 15 mm, Greiner), the cells were trypsinized, suspended, homogenized in 1 ml of medium, and centrifuged (10 min at 800 rpm). Low-molecular-weight genomic DNA was extracted as described in Yawata et al., 1998.[52] Approximately 1 × 10^6 cells were plated and treated with the tested substances in various treatments. All the cells (including floating cells) were harvested by trypsinization and washed with Dulbecco's phosphate-buffered saline. Cells were lysed with the lysis buffer containing 10 mM Tris (pH 7.4), 150 mM NaCl, 5 mM EDTA, and 0.5% Triton X-100 for 30 minutes on ice. Lysates were vortexed and cleared by centrifugation at 10 000 g for 20 min. Fragmented DNA in the supernatant was extracted with an equal volume of a neutral phenol/chloroform/isoamyl alcohol mixture (25 : 24 : 1) and analyzed electrophoretically on 2% agarose gels containing 0.1 μg ml^−1 ethidium bromide.

[5] = system: P53; test: qPCR gene expression of P53 in PACA2 cells; conditions: treatment with IC50 conc., negative control = 1
Protocol: as §1, §2

[6] = system: BID; test: qPCR gene expression of BID in PACA2 cells; conditions: treatment with IC50 conc., negative control = 1
Protocol: as §1, §2

[7] = system: CCND1; test: qPCR gene expression of CCND1 in PACA2 cells; conditions: treatment with IC50 conc., negative control = 1
Protocol: as §1, §2

[8] = system: PACA2 cell lines; test: DNA fragmentation assay, PACA2; conditions: for DNA fragmentation, Inhibition (%): PACA2; for DNA fragmentation (%) M ± SEM: PACA2, 24 hours of exposure, −ve control 8.3 ± 0.31; for DNA fragmentation, Change: PACA2, change versus −ve control
Protocol: as §3

[9] = system: Paca2; test: Comet assay (DNA damage), pancreatic cancer cell line; conditions: for DNA damaged cells% (mean ± SEM): Paca2, comet assay, −ve 10.12 ± 0.85; for No. of cells, Class 0 / No. of cells, Class 1 / No. of cells, Class 2 / No. of cells, Class 3: Paca2, of 405 cells; for No. of cells, Class 0: class 0 = no tail; for No. of cells, Class 1: class 1 = tail length < diameter of nucleus; for No. of cells, Class 2: class 2 = tail length between 1× and 2× the diameter of nucleus; for No. of cells, Class 3: class 3 = tail length > 2× the diameter of nucleus
Protocol: Olive et al. (1990) used pancreatic and breast cancer cell lines to measure the DNA damage using the comet test.[53] Approximately 1.5 × 10^4 cells were imbedded in 0.75% low-gelling-temperature agarose after trypsin treatment to generate a single-cell suspension, which was then quickly pipetted onto a pre-coated microscope slide. Cell samples were lysed in 0.5% SDS, 30 mM EDTA, pH 8.0, for four hours at 50 °C. Samples were electrophoresed for 25 minutes at 0.6 V cm^−1 after being rinsed overnight at room temperature in Tris/borate/EDTA buffer, pH 8.0. Propidium iodide was then added for staining. A fluorescent microscope equipped with a CCD camera was used to observe the slides, and 150 unique comet photos from each sample were examined to determine the tail moment, DNA content, and percentage of DNA in the tail. To find the fraction of cells with DNA damage that resemble comets in each sample, around 100 cells were analyzed. Based on perceived comet tail length migration and relative proportion of DNA in the nucleus, the non-overlapping cells were randomly chosen and visually assigned a score on an arbitrary scale of 0–3. Class 0 = no detectable DNA damage and no tail; class 1 = tail with a length less than the nucleus diameter; class 2 = tail with length between 1× and 2× the nuclear diameter; and class 3 = tail longer than 2× the nucleus diameter.[54]

Row | SMILES | Gene expression Bcl-2 [1] [fold change/GAPDH] | Gene expression CDK4 [2] [fold change/GAPDH] | Gene expression P21 [3] [fold change/GAPDH] | DNA fragmentation, Inhibition (%) [4] [%] | DNA fragmentation (%) M ± SEM [4] | DNA fragmentation, Change [4] | Gene expression P53 [5] [fold change/GAPDH] | Gene expression BID [6] [fold change/GAPDH] | Gene expression CCND1 [7] [fold change/GAPDH] | DNA fragmentation, Inhibition (%) [8] [%] | DNA fragmentation (%) M ± SEM [8] | DNA fragmentation, Change [8] | No. of cells, Class 0 [9] | No. of cells, Class 1 [9] | No. of cells, Class 2 [9] | No. of cells, Class 3 [9] | also measured
1 | Cc1nn(-c2ccccc2)c(C=CC(=O)c2c(-c3cccs3)nn(-c3ccc([N+](=O)[O-])cc3)c2C)c1Cl [Compound 7d, 3-(4-Chloro-3-methyl-1-phenyl-1H-pyrazol-5-yl)-1-(5-methyl-1-(4-nitrophenyl)-3-(thiophen-2-yl)-1H-pyrazol-4-yl)prop-2-en-1-one] | 0.64 | 0.43 | 3.95 | 20.48 | 21.8 ± 0.94% and 21.8 ± 0.94^a % | 13.2 | – | – | – | – | – | – | – | – | – | – | –
2 | Cc1c(C(=O)C=Cc2nn(-c3ccccc3)cc2-c2ccc([N+](=O)[O-])cc2)c(-c2cccs2)nn1-c1ccc([N+](=O)[O-])cc1 [Compound 9e, 1-(5-Methyl-1-(4-nitrophenyl)-3-(thiophen-2-yl)-1H-pyrazol-4-yl)-3-(4-(4-nitrophenyl)-1-phenyl-1H-pyrazol-3-yl)prop-2-en-1-one] | – | – | – | – | – | – | 3.89 | 0.48 | 0.64 | 24.45 | 24.2 ± 0.57% and 24.2 ± 0.57^a % | 15.9 | 290 | 35 | 37 | 43 | DNA damaged cells% (mean ± SEM) [9]: 28.40 ± 1.04% and 28.40 ± 1.04^a %; No. of cells, Comets ([9]; Paca2, of 405 cells analyzed): 115
3 | COc1cccc2c1C(=O)c1c(O)c3c(c(O)c1C2=O)C[C@@](O)(C(=O)CO)C[C@@H]3O[C@H]1C[C@H](N)[C@H](O)[C@H](C)O1 [Doxorubicin, reference compound] | 0.56 | 0.39 | 4.18 | 23.67 | 25.2 ± 0.65% | 16.6 | 2.21 | 0.69 | 0.79 | 17.94 | 21.5 ± 0.46% | 13.2 | 299 | 38 | 32 | 36 | DNA fragmentation (%) M ± SEM ([4]; listed as MCF7 +ve control): 25.2 ± 0.65^a %; DNA fragmentation (%) M ± SEM ([8]; listed as PACA (+ve) control): 21.5 ± 0.46^a %; DNA damaged cells% (mean ± SEM) ([9]; listed as Dox): 26.17 ± 1.38% and 26.17 ± 1.38^a %
